This note sets out measurements from patent US20050071891A1, “Repressible sterility of animals” (priority 1999, published 2005).

Values joined by “and” are separate entries in the source; they are usually repeats but may differ in a detail not shown here. Equal entries are not always repeated.

In data set [1] the test system is P19-pSFM 7 cells. Nature of the data set: Luciferase activity of pSFM 25 in P19 clones stably integrated with pSFM 7. Type of data set: cell-based, mouse. Particulars: doxycycline at 1 μg/ml, clone 46. On the procedure:
Stably integrated P19 clones were obtained by using BioRad Gene Pulser II electroporation system. 30 μg DNA electroporated into 10 million cells under following conditions 960 μF and 0.16 kV in a 0.4 cm cuvette (0.4 kV/cm). The next day normal media were replaced with appropriate selection media (300 μg/ml G418).
Selection of a P19 cell line stably integrated with a goosecoid-dependent TET-OFF transactivator P19 cells were electroporated with pSFM 7 (Goosecoid promoter-TET/OFF) linearised with ApaLI and selected for stable integration.
Table 20 showes the luciferase activities of pSFM 25 (TRE luciferase+) shown in counts per second (cps) of transiently transfected in P19-pSFM 7 cells.
Addition of doxycycline at 1 μg/ml reduced luciferase activity from pSFM 25 in this clone by 90 fold. This clone, containing stably integrated pSFM 7 was therefore designated P19-pSFM 7 and used for further testing.

The subject of data set [2] is ZF4 cells. Kind of data set: Tet-off system in zebrafish cell culture, EGFP reporter. Type of data set: cell-based. The settings on record: doxycycline 0.2 μg/ml, 72 h, pTet-Off + pTRE-EGFP cells. An excerpt: The applicant first tested the functionality of the Tet-off system in zebrafish cell cultures. The cell culture was established using ZF4 cells as previously described (Driever and Rangini, 1993). Cells were transfected with the DNAs using Effectene liposomes (Qiagen) according to the manufacturer's instructions. Cells were initially transfected with pTet-Off and placed under neomycin selection for 1 month. Neomycin-resistant cells were then transfected with pTRE-EGFP, and the selection plasmid pTK-Hyg, and placed under hygromycin selection for two weeks. EGFP expression was determined by examining and counting cells with obvious fluorescence and by examination of cell lysates using a fluorometer. Cells were grown in medium with or without doxycycline (0.2 μg/ml) for 72 h prior to assessment of gene expression, or were rinsed of doxycycline and assessed for reporter gene expression 72 h after removal of doxycycline.

For data set [3], the system named is P19-pSFM 7 cells. Kind of data set: Expression patterns of reporter constructs in P19-pSFM 7 cells. Type of data set: cell-based, mouse. Particulars: transfected into P19-pSFM 7 cells. On the procedure: Fluorescent and transmitted light images were acquired using a CCD camera with a microscope. […] The luminescence assays were conducted by using a dark 96 well plate was done by Victor2 from Wallac or by Topcount NXT from Can berra Packard.
The first stage for testing blocker constructs is to set up an appropriate cell system to detect expression of reporter constructs. Initially, either pdsRED-N1 (CMV promoter RFP), pSFM 6 (CMV promoter goosecoid cDNA fused to RFP) or pSFM 24 (TRE EGFP) were transfected into P19-pSFM 7 cells to test the expression patterns of the EGFP, RFP and goosecoid-fused to RFP proteins (FIG. 37). […] In these cases, RFP expression fused to goosecid in the nucleus is expected to be inhibited in the presence of an appropriate blocker.

In data set [4] the test system is zBMP2. Nature of the data set: Injection of zBMP2 antisense and double stranded DNA constructs into zebrafish embryos. The class given is in vivo. The settings on record: 100 μg/ml, 1-4 cell stage embryos. On the procedure: All the DNA preparations were appropriately linearized and gel purified (Qiaquick Gel Extraction Kit) before injection. Needles were made from borosilicate glass capillaries with filaments (GC100TF-15, Clark Electromedical instruments) using a P-80PC micropipette puller (Sutter Instrument Co.). The needle was back-filled with purified DNA diluted to 100 ng/μl in 1× injection buffer (10×; 50 mM Tris; 5 mM EDTA; 1M KCl, pH7.2) using a hand pulled pipette. Injections were carried out on a dissection microscope fitted with two, 3-dimensional Narshige MN-151 micromanipulators. Embryos were held in place during injection by a hydraulically (mineral oil) driven holding pipette. Injection of DNA solution was facilitated pneumatically using a 3-way foot operated plunge valve (Festo Engineering), connected between the injection needle holder and nitrogen tank. Injection was performed on one-cell stage embryos, unless specifically indicated otherwise. Injected embryos were incubated and reared as described above.
On confirming the ability of in vitro transcribed BMP2 antisense and double stranded transcripts to disrupt larval development, DNA constructs capable of expressing the antisense and double stranded transcripts in vivo were developed and tested. […]

As to `C[C@H]1c2cccc(O)c2C(=O)C2=C(O)[C@]3(O)C(=O)C(C(N)=O)=C(O)[C@@H](N(C)C)[C@@H]3[C@@H](O)[C@@H]21` [doxycycline, reference compound], in data set [1], the “reduction of luciferase activity from pSFM 25” value is recorded as 90 fold. Besides, the “EGFP gene expression relative to cells not exposed to doxycycline” value in data set [2] is “approximately 3%”. In the case of “pSFM 6: goosecoid cDNA fused to red fluorescent protein in pDSRed1-N1”, the “cellular location of reporter expression” value in data set [3] is “detected in the nucleus”.

B1: pzBMP2-ds: zBMP2 promoter drives about 800 bp of zBMP2 cDNA designed to fold back as dsRNA (SEQ ID NO:13) (nucleic acid)
DNA: GAATTCATGAGGAACTTAGGAGACGACGGGAACGCAGACCGGCCACAGCGCTTCCTCCTCCGGAACTGACTGATCATGGTCGCCGTGGTCCGCGCTCTCACGGTGCTGTTGCTCGGTCAGGTGTTGCTGGGAGGTGCCGTTGGACTCATTCCCGAGATCGACCGACGGAAATACAGTGATTCGGGGAGACACACACCGGAGCGAACTGATACAAACTTCCTGAACGAGTTTGAGCTACGCTTGCTCAATATGTTCGGATTGAAGCGAAAACCCACCCCAAGCAAATCGGCAGTGGTCCCTCAGTACATGCTGGACTTGTATTATATGCACTCTGAAAACGATGACCCGAACATTCGGCGCCCGAGGAGCACTATGGGAAAACATGTAGAAAGGGCAGCCAGCAGAGCAAACACGATACGAAGTTTTCATCACGAAGAGGCTTTCGAGGCACTGTCCAGCCTGAAAGGAAAAACAACGCAGCAGTTTTTCTTCAACCTTACCTCCATTCCTGTCGACTGCCGATTTGCTTGGGGTGGGTTTTCGCTTCAATCCGAACATATTGAGCAAGCGTAGCTCAAACTCGTTCAGGAAGTTTGTATCAGTTCGCTCCGGTGTGTGTCTCCCCGAATCACTGTATTTCCGTCGGTCGATCTCGGGAATGAGTCCAACGGCACCTCCCAGCAACACCTGACCGAGCAACAGCACCGTGAGAGCGCGGACCACGGCGACCATGATCAGTCAGTTCCGGAGGAGGAAGCGCTGTGGCCGGTCTGCGTTCCCGTCGTCTCCTAAGTTCCTCATCTGCAGCAATTGGATATCAAGCTTATCGATGATGATCCAGACATGATAAGATACATTGATGAGTTTGGACAAACCNCANCTAGAATGCAGTGAAAAAAATGCTTTATTTGTGAAATTTGTGATGCTATTGCTTTATTTGTAACCATTATAAGCTGCAATAAACAAGTTAACNACAACAATTGCATTCATTTTATGTTTCAGGTTCAGNGGGAGGTGTGGGAGGTTTTTTAAAGCAAGTAAAACCTCTNCAAATGTGGTATGGCTGATTATGATCCTCTAGATCAGATCCACTAGTTCTAGAGCGGCCGCCACCGCGGTGGAGCTC
modifications: Blocker Molecule
With B1, in data set [4], the “Number Deformed” value was 21 and 22; the “mortality, percentage” value is 14.3% and 16.5%.
